# Reference: patent US20240317722A1, “HETEROARYL-3-PIPERIDINEDIONE COMPOUND AND USE THEREOF” (Medshine Discovery Inc., priority 2021, published 2024)
# Like-named read-outs stand apart in the source and are kept apart here.
# Key:
# MDA-MB-231 = assay: Anti-proliferative effect in MDA-MB-231 (CellTiter-Glo); assay type: cell-based, human; details: MDA-MB-231, 3 days; for IC50: Homo sapiens, 72 h
# Description: (§1) This assay studied the inhibitory effect of the compounds on cell proliferation by detecting the effect of the test compounds on the in vitro activity of tumor cells MV4-11 and MDA-MB-231.
# (§2) The tumor cell lines were cultured in an incubator at 37° C., 5% CO2 or 0% CO2according to the above culture conditions. The cells were periodically passaged, and cells in logarithmic growth phase were taken for plating. • 2. Cell plating • (1). Cells were stained with trypan blue and viable cells were counted. • (2).
# (§3) • (3). 90 μL of cell suspension was added to each well of the culture plate, and culture medium without cells was added to the blank control well. • (4). The plate was incubated overnight in an incubator at 37° C., 5% CO2 or 0% CO2, and 100% relative humidity. • 3. Preparation of a compound storage plate
# (§4) Preparation of a 400× compound storage plate: The compounds were diluted with DMSO in a gradient from the highest concentration to the lowest concentration. The plates were prepared freshly at each time for use. • 4. Preparation of 10× compound working solution and treatment of cells with compounds • (1). Preparation of 10× compound working solution: compound or DMSO was added, and the well content was mixed to uniform by aspiration and expelling with pipette. 78 μL of cell culture medium was added to a 96-well plate with a V-shaped bottom. 2 μL of the compound from the 400× compound storage plate was added to the cell culture medium in the 96-well plate. 2 μL of DMSO was added to the vehicle control and the blank control. After adding compound or DMSO, the well content was mixed to uniform by aspiration and expelling with pipette. • (2). Dosing: 10 μL of 10× compound working solution was added to the cell culture plate. 10 μL of DMSO-cell culture mix solution was added to the vehicle control and blank control. • (3). The 96-well cell plate was placed back into the incubator and cultured for 3 days. • 5. CellTiter-Glo luminescence cell viability detection
# The following steps were performed according to the instruction of Promega CellTiter-Glo luminescence cell viability detection kit (Promega-G7573). • (1). The CellTiter-Glo buffer was thawed and allowed to stand to reach room temperature; • (2). CellTiter-Glo substrate was allowed to stand to reach room temperature; • (3). 10 mL of CellTiter-Glo buffer was added to CellTiter-Glo substrate in a bottle to dissolve the substrate to formulate CellTiter-Glo working solution; • (4). The working solution was vortexed slowly for fully dissolution; • (5). The cell culture plates were taken out and allowed to stand for 30 minutes to equilibrate to room temperature; • (6). 50 μL (equal to half the volume of cell culture solution in each well) of Cell Titer-Glo working solution was added into each well. The cell plate was wrapped with aluminum foil to protect the cell plate from light; • (7). The culture plates were shaken on an orbital shaker for 2 minutes to induce cell lysis; • (8). The culture plates were left at room temperature for 10 minutes to stabilize the luminescence signal; • (9). The luminous signal was detected on the 2104 En Vision plate reader. • 6. Data analysis
# The following formula was used to calculate the inhibition rate (IR) of the test compounds: IR (%)=(RLU of the vehicle control−RLU of the compound)/(RLU of the vehicle control−RLU of the blank control)*100%. The inhibition rates of the compounds at different concentrations were calculated in Excel, and then GraphPad Prism software was used to graph the inhibition curves and calculate the relevant parameters, including the minimum inhibition rate, maximum inhibition rate and IC50.
# MV4-11 = assay: Anti-proliferative effect in MV4-11 (CellTiter-Glo); assay type: cell-based; details: MV4-11, 3 days; for IC50: Homo sapiens, 72 h
# Description: as §1, §2, §3, §4
# The following steps were performed according to the instruction of Promega CellTiter-Glo luminescence cell viability detection kit (Promega-G7573). • (1). The CellTiter-Glo buffer was thawed and allowed to stand to reach room temperature; • (2). CellTiter-Glo substrate was allowed to stand to reach room temperature; • (3). 10 mL of CellTiter-Glo buffer was added to CellTiter-Glo substrate in a bottle to dissolve the substrate to formulate CellTiter-Glo working solution; • (4). The working solution was vortexed slowly for fully dissolution; • (5). […] The culture plates were left at room temperature for 10 minutes to stabilize the luminescence signal; • (9). The luminous signal was detected on the 2104 En Vision plate reader. • 6. […]
# GSPT1 [1] = target: T1, GSPT1 (Homo sapiens, UniProt P15170+Q96SW2); assay: Effect of degrading GSPT1 protein (Western blot) in BxPC-3 cells; assay type: cell-based; parameters: endogenous in cells; host or cells: BxPC-3; details: 10 μM, 1 μM and 0.1 μM, 24 hours, Western blot (FIG. 1)
# T1 sequence (P15170 whole entry): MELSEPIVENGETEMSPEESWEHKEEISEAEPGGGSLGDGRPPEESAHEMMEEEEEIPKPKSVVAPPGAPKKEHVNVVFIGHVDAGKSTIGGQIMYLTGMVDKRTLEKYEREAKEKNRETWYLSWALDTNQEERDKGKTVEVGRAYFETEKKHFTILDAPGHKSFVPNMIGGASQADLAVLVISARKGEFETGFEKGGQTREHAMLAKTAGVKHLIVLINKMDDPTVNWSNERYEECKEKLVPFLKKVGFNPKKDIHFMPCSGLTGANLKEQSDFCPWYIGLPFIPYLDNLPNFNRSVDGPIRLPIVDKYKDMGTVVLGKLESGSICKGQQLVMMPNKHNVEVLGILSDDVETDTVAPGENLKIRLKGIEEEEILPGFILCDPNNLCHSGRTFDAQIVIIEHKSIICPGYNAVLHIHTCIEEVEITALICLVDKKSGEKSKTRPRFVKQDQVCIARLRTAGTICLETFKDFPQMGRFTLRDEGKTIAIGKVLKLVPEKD
# T1 sequence (Q96SW2 whole entry): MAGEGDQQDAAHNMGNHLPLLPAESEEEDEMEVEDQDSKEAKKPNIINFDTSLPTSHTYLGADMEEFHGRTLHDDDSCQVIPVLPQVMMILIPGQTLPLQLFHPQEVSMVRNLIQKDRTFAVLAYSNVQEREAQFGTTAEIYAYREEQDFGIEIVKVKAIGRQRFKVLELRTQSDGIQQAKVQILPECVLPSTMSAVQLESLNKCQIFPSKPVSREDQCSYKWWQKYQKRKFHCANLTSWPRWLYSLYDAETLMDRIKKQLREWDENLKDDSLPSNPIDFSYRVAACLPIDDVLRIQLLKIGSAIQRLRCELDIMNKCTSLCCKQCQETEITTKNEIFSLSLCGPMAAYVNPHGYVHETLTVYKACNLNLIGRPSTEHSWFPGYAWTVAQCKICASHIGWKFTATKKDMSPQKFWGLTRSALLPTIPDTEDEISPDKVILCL
# T1 sequence (Q16531 whole entry partner): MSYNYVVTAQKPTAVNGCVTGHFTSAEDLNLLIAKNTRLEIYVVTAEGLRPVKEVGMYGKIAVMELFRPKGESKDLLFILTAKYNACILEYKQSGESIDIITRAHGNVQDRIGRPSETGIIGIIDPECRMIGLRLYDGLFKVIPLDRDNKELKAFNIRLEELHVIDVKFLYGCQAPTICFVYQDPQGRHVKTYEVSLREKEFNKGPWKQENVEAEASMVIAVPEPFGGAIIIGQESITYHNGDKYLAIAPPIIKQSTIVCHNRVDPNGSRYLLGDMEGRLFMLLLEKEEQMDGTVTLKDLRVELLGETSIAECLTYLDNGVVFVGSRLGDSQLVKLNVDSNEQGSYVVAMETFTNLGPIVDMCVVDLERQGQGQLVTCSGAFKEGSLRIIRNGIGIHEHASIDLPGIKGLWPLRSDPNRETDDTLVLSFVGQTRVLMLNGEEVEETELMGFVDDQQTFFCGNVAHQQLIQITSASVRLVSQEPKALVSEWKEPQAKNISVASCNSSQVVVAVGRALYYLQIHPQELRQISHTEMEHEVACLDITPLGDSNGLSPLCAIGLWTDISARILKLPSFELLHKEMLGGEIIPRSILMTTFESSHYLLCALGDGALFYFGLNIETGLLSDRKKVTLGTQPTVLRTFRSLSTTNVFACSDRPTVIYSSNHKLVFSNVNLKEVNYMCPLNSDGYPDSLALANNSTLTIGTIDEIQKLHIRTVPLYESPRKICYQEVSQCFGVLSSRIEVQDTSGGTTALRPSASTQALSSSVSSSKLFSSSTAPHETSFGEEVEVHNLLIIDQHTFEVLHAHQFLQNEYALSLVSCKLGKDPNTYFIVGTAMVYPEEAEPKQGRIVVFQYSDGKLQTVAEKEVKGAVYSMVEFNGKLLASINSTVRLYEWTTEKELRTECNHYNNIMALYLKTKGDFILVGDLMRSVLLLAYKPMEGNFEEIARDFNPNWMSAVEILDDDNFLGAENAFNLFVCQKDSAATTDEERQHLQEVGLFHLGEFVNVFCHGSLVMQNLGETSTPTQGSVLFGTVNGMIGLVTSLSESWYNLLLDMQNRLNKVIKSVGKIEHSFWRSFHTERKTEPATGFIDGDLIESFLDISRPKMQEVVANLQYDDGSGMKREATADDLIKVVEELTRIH
# Description: BxPC-3 cells were treated with 10 μM, 1 μM and 0.1 μM of the test compound respectively for 24 hours. The cells were collected and lysed, denatured at 100° C. for 20 minutes, and then subjected to Western blot analysis. β-actin was used as the internal reference protein to detect the protein level of GSPT1. The main steps included: 1) Electrophoresis: Biorad precast gel was used to separate proteins using SDS-PAGE electrophoresis; 2) Transfer to membrane: Biorad rapid transfer to membrane system was used to transfer the proteins on the gel to PVDF membrane; 3) Blocking: the PVDF membrane with Western blotting was placed into an antibody incubation box, and blocking solution was added to completely cover the PVDF membrane for incubation at room temperature for 1 hour; 4) Incubation of the primary antibody: the above PVDF membrane was covered with GSPT1 antibody diluent, and incubated on a shaker at 4° C. overnight, 5) Incubation of the secondary antibody: the membrane was washed three times with Wash buffer, and secondary antibody diluent (Anti-rabbit IgG, HRP-linked) was added for incubation on a shaker at room temperature for 1 hour; 5) Exposure: the membrane was washed three times with Wash buffer, and the band on the membrane was detected using chemiluminescence method (Clarity Western ECL Substrate).
# [2] = Pharmacokinetics of compounds in mice; assay type: in vivo, C57BL/6N mice; details: for bioavailability / clearance / Vd / half-life: male, C57BL/6N, mouse, plasma; for bioavailability: read-out: Bioavailability F; for Vd: read-out: Apparent volume of distribution; for half-life: read-out: Elimination half-life (converted)
# Description: In this study, C57BL/6N male mice were selected as the test animals, and the LC/MS/MS method was used to quantitatively determine the drug concentration in the plasma of mice intravenously or orally administered the test compounds, so as to evaluate the pharmacokinetic profile of the test compounds in mice.
# C57BL/6N mice (male, 20-30 g, 7-10 weeks old, Beijing Vital River).
# A clear solution or suspension of the test compound was intravenously injected into C57BL/6N mice (fasted overnight) via tail or given to C57BL/6N mice (fasted overnight) by gavage. For intravenous injection administration, blood was collected from the cheek at 0 h (before administration) and 0.083, 0.25, 0.5, 1, 2, 4, 6, 8, and 24 h after administration. Each sample was collected about 0.05 mL. Heparin sodium was added to anti-coagulate. Plasma samples were collected and placed on wet ice, and centrifuged within 1 hour to separate the plasma (centrifugation conditions: 6000 g, 3 minutes, 2-8° C.). Blood samples were stored in a −80° C. refrigerator before analysis; For oral gavage administration, blood was collected from the cheek at 0 h (before administration) and 0.083, 0.25, 0.5, 1, 2, 4, 6, 8, 24 h after administration. Each sample was collected about 0.05 mL. Heparin sodium was added to anti-coagulate. Plasma samples were collected and placed on wet ice, and centrifuged within 1 hour to separate the plasma (centrifugation conditions: 6000 g, 3 minutes, 2-8° C.). Blood samples were stored in a −80° C. refrigerator before analysis. Through blood drug concentration data at different time points, Phoenix WinNonlin8.2.0 was used to calculate pharmacokinetic parameters, providing parameters such as AUC0-t, AUC0-∞, MRT0-∞, Cmax, Tmax, and T1/2, etc. and their mean and standard deviation.
# GSPT1 [3] = target: T1, GSPT1; assay: Target protein degradation in HEK293T-LgBiT_GSPT1-nHiBiT cells (HiBiT luminescence); assay type: cell-based; parameters: expressed in transfected cells; details: 16 to 18 hours; for Dmax: read-out: Max. DR (maximum degradation rate)
# Description: This assay was performed to detect the degradation effect of the test compound on the target protein GSPT1 in HEK293T-LgBiT cells.
# • 1. Preparation of compounds • (1). Dissolving the powder of the test compound with DMSO to 10 mM as the storage concentration, and using a pipette to manually draw 9 μL of 10 mM or 3 mM test compound to columns 1 and 13 of a LDV plate; • (2). Using multidrop Combi to add 6 μL of DMSO to columns 2-12 and 14-24; • (3). Using Bravo to dilute the test compound 3 times (3 μL+6 μL) from columns 1 to 11 and 13 to 23; • (4). According to the layout of the plate, using Echo to transfer 25 nL of compound solution (columns 1-24 of the LDV plate) to the assay plate; • (5). Using Echo to transfer 25 nL of 1 mM positive control solution to the assay plate as a 100% degradation control (i.e. LC, HPE), and to transfer 25 nL of DMSO to the assay plate as a 0% control (i.e. HC, ZPE). • 2. Cell plating • (1). Discarding the cell culture medium, and washing the cells once with DPBS; then the cells were trypsinized, counted, and used to prepare a cell suspension of 4×10^5 cells/mL; • (2). Using MultiDrop Combi to add 25 μL/well of cell suspension at medium speed to the assay plate containing the test compound; • (3). Putting the assay plate containing cells back into the incubator and culturing it at 37° C. and 5% CO2 for 16 to 18 hours.
# • (1). Using MultiDrop Combi to add 25 μL/well of detection reagent (NanoGlo lysis solution+substrate+LgBit protein) to the assay plate at high speed, and shaking for 10 minutes; • (2). Centrifuging at 2000 rpm×1 min to remove bubbles; • (3). Reading the plate using Envision, US Luminescence detection method.
# The following formula was used to calculate the degradation rate (DR) of the test compound: DR (%)=(RLU of vehicle control−RLU of compound)/(RLU of vehicle control−RLU of positive control)*100%, wherein the vehicle control was a blank control. The degradation rates of compounds at different concentrations were calculated in Excel, and then XLFit software was used to obtain inhibition curves and to calculate relevant parameters, including the minimum degradation rate, maximum degradation rate and DC50.
# [4] = administration by gavage, 10 mg/kg
IC50 (MDA-MB-231),IC50 (MV4-11),"Area under the plasma concentration-time curve (0-inf) [2, 4]","Peak concentration [2, 4]","Time to peak [2, 4]","Area under the plasma concentration-time curve (0-inf) ([2]; intravenous injection, 1 mg/kg)",bioavailability ([2]; PO 10 mg/kg vs IV 1 mg/kg),"clearance ([2]; intravenous injection, 1 mg/kg)","Vd ([2]; intravenous injection, 1 mg/kg)","half-life ([2]; intravenous injection, 1 mg/kg)",DC50 (GSPT1 [3]),Dmax (GSPT1 [3]),"Area under the plasma concentration-time curve (0-inf) ([2]; intravenous injection, 2 mg/kg)",bioavailability ([2]; PO 10 mg/kg vs IV 2 mg/kg),"clearance ([2]; intravenous injection, 2 mg/kg)","Vd ([2]; intravenous injection, 2 mg/kg)","half-life ([2]; intravenous injection, 2 mg/kg)",Structure (SMILES),Max. IR (maximum inhibition rate) (MDA-MB-231),Max. IR (maximum inhibition rate) (MV4-11),effect of promoting the degradation of GSPT1 protein (GSPT1 [1])
57.2 nM,30.5 nM,,,,,,,,,,,,,,,,Cc1ccc(NC(=O)NCc2ccc3occ(C4CCC(=O)NC4=O)c3c2)cc1Cl (stereo not shown) [WX001],69.41%,99.95%,significant effect of promoting the degradation of GSPT1 protein
52.4 nM,6 nM,,,,,,,,,,,,,,,,O=C(COc1cccc(-c2csc(N3CCOCC3)n2)c1)NCCCCCCC(=O)Nc1ccc2c(C3CCC(=O)NC3=O)coc2c1 (stereo not shown) [WX003],65.29%,100.15%,
4.7 nM,,2.71 µM·h,1.76 µM,0.50 h,1.90 µM·h,14.2%,15.8 mL/min/kg,2.3 L/kg,217 min,1.94 nM,99.9%,,,,,,Cc1c(Cl)cc(NC(=O)NCc2ccc3c(C4CCC(=O)NC4=O)coc3c2)cc1OCCN1CCOCC1 (stereo not shown) [WX006],80.3%,,
,,1.99 µM·h,0.69 µM,1.08 h,,,,,,1.18 nM,99.8%,6.45 µM·h,6.18%,9.5 mL/min/kg,0.41 L/kg,111 min,Cc1c(Cl)cc(NC(=O)NCc2ccc3c(C4CCC(=O)NC4=O)noc3c2)cc1OCCN1CCOCC1 (stereo not shown) [WX012],,,
